Measured values published in patent publication US20240207308A1, “METHOD FOR CULTURING DENDRITIC CELLS” (NANOFAENTECH CO., LTD., priority 2021, published 2024).

What was measured:
Format in all cases: cell-based, mouse
[1] = system: spleen dendritic cells; assay: Flow cytometry of CD86, MHC-II, CD80, CD40 on cultured spleen dendritic cells (self-activation); conditions: for increase in CD86 expression by self-activation: different concentrations up to 800 μg/mL; for increase in CD86 expression by self-activation / increase in the expression of CD86: 2×10^5/mL cells; for increase in the expression of CD86: each at 800 μg/mL, 24 hours
Procedure: Mouse spleen dendritic cells were obtained by adding EDTA-BSS (Balanced Salt Solution) buffer and collagenase solution (DMEM containing 100 units of collagenase type IV, medium containing low glucose) to spleens of female C57BL/6 mice and cutting it with surgical scissors, mixing the same with 6 mL of collagenase treatment solution, and incubating the mixture for 30 minutes. The separated whole spleen tissue was filtered using a 70 μm cell strainer (Falcon), followed by centrifugation at 1800 rpm for 5 minutes thus to separate the cells. Red blood cells were removed by adding red blood cell lysis buffer (Sigma-Aldrich) to the cells and washed twice with RPMI-1640 medium containing 10% fetal bovine serum (FBS). Dendritic cells were reacted with CD11c^+ antibody-bound microbeads and isolated using CD11c Microbeads Ultrapure (MACS, Milteni Biotec, USA).
In FIG. 2, in order to determine whether self-activation occurs when primary dendritic cells isolated from the spleen are cultured, dendritic cells were dispensed in a 24-well plate at 2×10^5/mL, and after culturing for 6 hours in RPMI-1640 medium at 37° C. under 5% CO2 condition, the expression levels of MHC-II, CD86, CD80 and CD40 were analyzed on the surface of dendritic cells using a flow cytometer (MACSQuant VYB flow cytometer, Miltenyi Biotec). Results measured using a flow cytometer were analyzed using FlowJo v10 (Tree Star, Ashland). The expression levels of CD86, CD80 and CD40 were shown as the percentage of cells stained with CD11c, and the expression level of MHC-II was shown as mean fluorescence intensity (MFI), which is the mean fluorescence intensity of fluorescence.
In FIG. 7, when culturing spleen dendritic cells, each of the prepared peptides was added at a concentration of 200 μg/mL and the expression level of CD86 was measured 6 hours after culture. When each peptide was used alone for treatment, the expression of CD86 was not inhibited in spleen dendritic cells. […] Compared to when the cells were treated with these three kinds of peptides, the expression was not inhibited even when the two kinds of peptides were used together for treatment. * indicates statistical significance as P<0.05 or less compared to the P1, P1-2, and P2-1 conditions.
In FIG. 9, peptides containing P1 and P2 and amino acids of these peptides as well as P3 peptide in a combination of three types were added to the spleen dendritic cell culture medium, and after culturing for 6 hours, the expression level of CD86 was measured by flow cytometry.
In FIG. 24, different concentrations of LP1, LP2 and LP3 were added to reach a concentration of 800 μg/mL, and spleen dendritic cells (2×10^5/mL) were cultured for 6 hours or 24 hours, and the CD86 expression level was measured by flow cytometry (MACSQuant VYB flow cytometer, Miltenyi Biotec). The measured results were analyzed using FlowJo v10 (Tree Star, Ashland).
In FIG. 25, when spleen primary dendritic cells were dispensed at 2×10^5/mL and cultured for 24 hours while scrambled peptides of S-LP1, S-LP2 and S-LP3 were each added at a concentration of 800 μg/mL, the increase in the expression of CD86 was not inhibited. Further, the expression of CD86 was not reduced even when the scrambled peptides S-P1, S-P2 and S-P3 were simultaneously treated at a concentration of 600 μg/mL, respectively.

[2] = system: spleen dendritic cells; assay: Fluorescence staining of CD86 in spleen dendritic cells, confocal microscope; conditions: without LPS, linker peptides 400 μg/mL, 24 hours
Procedure: In FIG. 11, culturing spleen dendritic cells (2×10^5/mL) and the prepared peptides were added at a concentration of 200 μg/mL, respectively, and after 6 hours, the expression level of CD86 using a PE-conjugated anti-CD86 antibody (eBioscience) was measured through a confocal microscope after fluorescence staining. After culturing spleen primary dendritic cells for a certain period of time, intracellular CD86, F-actin and nuclear staining was implemented. Expression of actin was stained with FITC-conjugated phalloidin (eBioscience), and nuclear staining was conducted with Hoechst 33342 (Sigma-Aldrich). For this purpose, cells cultured in a 48-well plate were placed in a 4% paraformaldehyde fixing solution, and then fixed at room temperature for 20 minutes.
Then, after washing twice with phosphate buffered saline solution, it was permeabilized with 0.1% Triton X-100 (Sigma-Aldrich) solution at room temperature for 5 minutes and washed twice with phosphate buffered saline solution. In order to remove non-specific staining, after reacting with 0.2% bovine serum albumin (Sigma-Aldrich) solution at room temperature for 20 minutes, it was washed twice with phosphate buffered saline solution. After that, the anti-CD86 antibody and phalloidine were diluted in 0.2% bovine serum albumin solution at a ratio of 1:40 and reacted for 40 minutes, washed 3 times with Tris buffer, placed on a slide glass, followed by counter-staining with Hoechst 33342 solution for nuclear staining of cells. After sealing with a cover glass, the cells were observed using a confocal laser microscope (K1 nanoscope).
In FIG. 26, spleen dendritic cells (2×10^5/mL) were dispensed in a 48-well plate, and linker peptides were each added at a concentration of 400 μg/mL, followed by culturing for 24 hours. Activation of spleen dendritic cells was induced by adding 1 μg/mL of LPS to the culture medium. The cultured cells were placed in a 4% paraformaldehyde fixing solution and fixed at room temperature for 20 minutes. After fluorescence staining using PE-conjugated anti-CD86 antibody (eBioscience), it was measured with a confocal microscope (K1 Nanoscope, Korea). Intracellular actin expression was stained with FITC-conjugated phalloidin (eBioscience), and nuclear staining was conducted with Hoechst 33342 (Sigma-Aldrich). CD86 antibody and phalloidin were diluted 1:40 in 0.2% bovine serum albumin solution and used.

[3] = system: spleen primary dendritic cells; assay: ELISA of TNF-α / IL-12p40 secreted by cultured spleen primary dendritic cells; conditions: cells 2×10^5/mL, 24 hours, without LPS
Procedure: In FIG. 12, spleen primary dendritic cells were dispensed at 1×10^6/mL and cultured for 24 hours, and then a concentration of TNF-α secreted from these cells in the culture medium was measured. As a result, it was confirmed that the secretion increased in a time-dependent manner. The concentration of TNF-α was measured at 450 nm using an ELISA kit (R&D systems) and a microplate analyzer (Synergy H1, Biotek). However, when dendritic cells were dispensed at 2×10^5/mL, CD86 expression was increased but TNF-α secretion was not increased (results not presented). * indicates statistical significance as P<0.05 or less compared with 3 h.
In FIG. 13, spleen primary dendritic cells were dispensed at 1×10^6/mL and cultured for 24 hours. […] Furthermore, when P4, P5 and P6 peptides were added at a concentration of 200 μg/mL, respectively, the secretion of TNF-α was not inhibited.
Therefore, it could be seen that fibronectin has a disadvantage of inhibiting the activation by stimulants although can maintain the inactivation of spleen dendritic cells. * indicates statistical significance as P<0.05 or less compared to -LPS.
In FIG. 27, an ELISA kit (R&D systems) was used to measure the concentration of TNF-α secreted into the culture medium when spleen primary dendritic cells were dispensed at 2×10^5/mL and cultured for 24 hours. The concentration was determined at 450 nm by a microplate analyzer (Synergy H1, Biotek).

[4] = system: spleen T cells from Balb/c mice; assay: Mixed lymphocyte reaction: proliferation of CFSE-stained allogeneic T cells co-cultured with spleen dendritic cells; conditions: dendritic cells without peptide or fibronectin, activated with the stimulant, compared to control
Procedure: Since the main role of activated dendritic cells is to induce antigen-specific T-cell activation and proliferation according to the stimulatory properties, it was investigated whether self-activated dendrite cells after culturing and dendritic cells activated with LPS after culturing with addition of peptides can induce T cell proliferation by mixed lymphocyte reaction (MLR) test. The spleen dendritic cells isolated from C57B/L6 mice were self-activated for 24 hours, otherwise, when cultured with addition of peptides or fibronectin, the cells were treated with LPS and activated. Spleen T cells from Balb/c mice were isolated using a CD4^+/CD8^+ T cell isolation kit (Miltenyi Biotec, Bergisch-Gladbach, Germany) and MACS column (Miltenyi Biotec), followed by 10 μM CFSE staining (Molecular Probes; Thermo Fisher Scientific Inc., USA). The activated dendritic cells and CFSE-stained T cells were co-cultured at a ratio of 1:20 for 4 days, and the T cell proliferation level was measured as a percentage of cells with decreased CFSE. […] In FIG. 22, the amount of cytokines secreted after co-culture of spleen dendritic cells and T cells for 4 days was measured by ELISA method. […]

Substance | increase in CD86 expression by self-activation ([1]; 6 hours or 24 hours) | CD86-expressing cells [2] | TNF-α secretion [3] | increase in the expression of CD86 [1] | also measured
PHSRNGGGSGGGSRGDGGGSLDV (Linker peptide LP3) | inhibited | almost not observed | hardly occurred | – | self-activation inhibitory effect compared among LP1, LP2 and LP3 ([1]; up to 800 μg/mL, 6 hours or 24 hours): greatest self-activation inhibitory effect
polyinosinic:polycytidylic acid [poly (I:C), reference compound] | – | – | – | – | proliferation of co-cultured spleen T cells [4]: slightly increased
NRPHSGGGSGGGSDRGGGGSVDL (Scrambled linker peptide S-LP3) [scrambled linker peptide, control, reference compound] | – | – | – | not inhibited | –
laminin | – | – | – | – | expression level of CD86 or MHC-II (self-activation) ([1]; 200 μg/mL (laminin 200 μg/mL or higher), cultured 6 hours): self-activation was not inhibited; expression of MHC-II, CD80 and CD40 in addition to CD86 ([1]; cultured 6 hours or 24 hours, peptides 200 μg/mL each): no effect was observed
NRPHSGGGSDRGGGGSVDL (Scrambled linker peptide S-LP2) [scrambled linker peptide, control, reference compound] | – | – | – | not inhibited | –
PHSRNGSRGDGSLDV (Linker peptide LP1) | inhibited | almost not observed | hardly occurred | – | –
Pro-His-Ser-Arg-Asn (PHSRN; Fibronectin motif P3) [Peptide P3] | – | – | – | – | expression level of CD86 ([1]; treated alone at 600 μg/mL, 6 hours): no inhibitory effect
PHSRNGGGSRGDGGGSLDV (Linker peptide LP2) | inhibited | almost not observed | hardly occurred | – | –
NRPHSGSDRGGSVDL (Scrambled linker peptide S-LP1) [scrambled linker peptide, control, reference compound] | – | – | – | not inhibited | –
